± gives the expanded uncertainty stated by the source.
Experiment: xn = mol fraction of the nth substance listed
Conditions: Liquid, Vibrating tube method

CCCCCl [1-chlorobutane] + CCCCCCC
Conditions | mass density [kg/m3]
283.15 K, 50000 kPa, x2 = 0.2013 | 882.07 ± 0.46
283.15 K, 50000 kPa, x2 = 0.3015 | 857.66 ± 0.51
283.15 K, 50000 kPa, x2 = 0.4008 | 835.21 ± 0.55
283.15 K, 50000 kPa, x2 = 0.5026 | 813.85 ± 0.6
283.15 K, 50000 kPa, x2 = 0.6012 | 794.6 ± 0.63
283.15 K, 50000 kPa, x2 = 0.7003 | 776.55 ± 0.67
283.15 K, 50000 kPa, x2 = 0.7995 | 759.63 ± 0.7
283.15 K, 50000 kPa, x2 = 0.9011 | 743.44 ± 0.74
283.15 K, 50000 kPa, x2 = 0.9494 | 736.1 ± 0.75
283.15 K, 60000 kPa, x2 = 0.0508 | 928.92 ± 0.4
283.15 K, 60000 kPa, x2 = 0.0994 | 915.32 ± 0.43
283.15 K, 60000 kPa, x2 = 0.2013 | 888.42 ± 0.49
283.15 K, 60000 kPa, x2 = 0.3015 | 863.89 ± 0.55
283.15 K, 60000 kPa, x2 = 0.4008 | 841.39 ± 0.6
283.15 K, 60000 kPa, x2 = 0.5026 | 819.91 ± 0.65
283.15 K, 60000 kPa, x2 = 0.6012 | 800.58 ± 0.7
283.15 K, 60000 kPa, x2 = 0.7003 | 782.47 ± 0.74
283.15 K, 60000 kPa, x2 = 0.7995 | 765.51 ± 0.78
283.15 K, 60000 kPa, x2 = 0.9011 | 749.23 ± 0.82
283.15 K, 60000 kPa, x2 = 0.9494 | 741.85 ± 0.84
283.15 K, 65000 kPa, x2 = 0.0508 | 931.98 ± 0.4
283.15 K, 65000 kPa, x2 = 0.0994 | 918.36 ± 0.44
283.15 K, 65000 kPa, x2 = 0.2013 | 891.39 ± 0.51
283.15 K, 65000 kPa, x2 = 0.3015 | 866.87 ± 0.57
283.15 K, 65000 kPa, x2 = 0.4008 | 844.29 ± 0.63
283.15 K, 65000 kPa, x2 = 0.5026 | 822.81 ± 0.68
283.15 K, 65000 kPa, x2 = 0.6012 | 803.45 ± 0.73
283.15 K, 65000 kPa, x2 = 0.7003 | 785.25 ± 0.78
283.15 K, 65000 kPa, x2 = 0.7995 | 768.28 ± 0.82
283.15 K, 65000 kPa, x2 = 0.9011 | 751.95 ± 0.86
283.15 K, 65000 kPa, x2 = 0.9494 | 744.53 ± 0.88
293.15 K, 100 kPa, x2 = 0.0508 | 871.93 ± 0.24
293.15 K, 100 kPa, x2 = 0.0994 | 858.68 ± 0.24
293.15 K, 100 kPa, x2 = 0.2013 | 832.5 ± 0.24
293.15 K, 100 kPa, x2 = 0.3015 | 808.71 ± 0.24
293.15 K, 100 kPa, x2 = 0.4008 | 786.9 ± 0.24
293.15 K, 100 kPa, x2 = 0.5026 | 766.2 ± 0.24
293.15 K, 100 kPa, x2 = 0.6012 | 747.61 ± 0.24
293.15 K, 100 kPa, x2 = 0.7003 | 730.17 ± 0.25
293.15 K, 100 kPa, x2 = 0.7995 | 713.87 ± 0.25
293.15 K, 100 kPa, x2 = 0.9011 | 698.34 ± 0.25
293.15 K, 100 kPa, x2 = 0.9494 | 691.32 ± 0.25
293.15 K, 2000 kPa, x2 = 0.0508 | 873.92 ± 0.25
293.15 K, 2000 kPa, x2 = 0.0994 | 860.68 ± 0.25
293.15 K, 2000 kPa, x2 = 0.2013 | 834.49 ± 0.25
293.15 K, 2000 kPa, x2 = 0.3015 | 810.76 ± 0.25
293.15 K, 2000 kPa, x2 = 0.4008 | 788.97 ± 0.26
293.15 K, 2000 kPa, x2 = 0.5026 | 768.2 ± 0.26
293.15 K, 2000 kPa, x2 = 0.6012 | 749.57 ± 0.26
293.15 K, 2000 kPa, x2 = 0.7003 | 732.18 ± 0.26
293.15 K, 2000 kPa, x2 = 0.7995 | 715.87 ± 0.27
293.15 K, 2000 kPa, x2 = 0.9011 | 700.31 ± 0.27
293.15 K, 2000 kPa, x2 = 0.9494 | 693.28 ± 0.27
293.15 K, 5000 kPa, x2 = 0.0508 | 876.95 ± 0.26
293.15 K, 5000 kPa, x2 = 0.0994 | 863.68 ± 0.26
293.15 K, 5000 kPa, x2 = 0.2013 | 837.52 ± 0.27
293.15 K, 5000 kPa, x2 = 0.3015 | 813.71 ± 0.27
293.15 K, 5000 kPa, x2 = 0.4008 | 791.93 ± 0.28
293.15 K, 5000 kPa, x2 = 0.5026 | 771.16 ± 0.28
293.15 K, 5000 kPa, x2 = 0.6012 | 752.54 ± 0.29
293.15 K, 5000 kPa, x2 = 0.7003 | 735.08 ± 0.29
293.15 K, 5000 kPa, x2 = 0.7995 | 718.74 ± 0.3
293.15 K, 5000 kPa, x2 = 0.9011 | 703.17 ± 0.3
293.15 K, 5000 kPa, x2 = 0.9494 | 696.13 ± 0.31
293.15 K, 7000 kPa, x2 = 0.0508 | 878.92 ± 0.27
293.15 K, 7000 kPa, x2 = 0.0994 | 865.65 ± 0.27
293.15 K, 7000 kPa, x2 = 0.2013 | 839.47 ± 0.28
293.15 K, 7000 kPa, x2 = 0.3015 | 815.63 ± 0.29
293.15 K, 7000 kPa, x2 = 0.4008 | 793.83 ± 0.3
293.15 K, 7000 kPa, x2 = 0.5026 | 773.03 ± 0.3
293.15 K, 7000 kPa, x2 = 0.6012 | 754.35 ± 0.31
293.15 K, 7000 kPa, x2 = 0.7003 | 736.9 ± 0.31
293.15 K, 7000 kPa, x2 = 0.7995 | 720.57 ± 0.32
293.15 K, 7000 kPa, x2 = 0.9011 | 704.95 ± 0.33
293.15 K, 7000 kPa, x2 = 0.9494 | 697.9 ± 0.33
293.15 K, 10000 kPa, x2 = 0.0508 | 881.85 ± 0.28
293.15 K, 10000 kPa, x2 = 0.0994 | 868.56 ± 0.29
293.15 K, 10000 kPa, x2 = 0.2013 | 842.33 ± 0.3
293.15 K, 10000 kPa, x2 = 0.3015 | 818.52 ± 0.31
293.15 K, 10000 kPa, x2 = 0.4008 | 796.66 ± 0.32
293.15 K, 10000 kPa, x2 = 0.5026 | 775.83 ± 0.33
293.15 K, 10000 kPa, x2 = 0.6012 | 757.17 ± 0.33
293.15 K, 10000 kPa, x2 = 0.7003 | 739.62 ± 0.34
293.15 K, 10000 kPa, x2 = 0.7995 | 723.28 ± 0.35
293.15 K, 10000 kPa, x2 = 0.9011 | 707.66 ± 0.36
293.15 K, 10000 kPa, x2 = 0.9494 | 700.58 ± 0.36
293.15 K, 20000 kPa, x2 = 0.0508 | 890.77 ± 0.32
293.15 K, 20000 kPa, x2 = 0.0994 | 877.47 ± 0.33
293.15 K, 20000 kPa, x2 = 0.2013 | 851.18 ± 0.35
293.15 K, 20000 kPa, x2 = 0.3015 | 827.25 ± 0.37
293.15 K, 20000 kPa, x2 = 0.4008 | 805.35 ± 0.39

Reference: the NIST ThermoML archive (doi:10.1016/j.tca.2015.06.017)
